Results published in article PMC8380212, “^18F-labeled tracers targeting fibroblast activation protein” (EJNMMI Radiopharmacy and Chemistry, 2021).

Columns and labels:
FAP (HT-1080-FAP cells) = molecular target: T1, FAP (HT-1080-FAP cells) (Homo sapiens, UniProt Q12884); assay: Competition experiments with unlabeled precursor on HT-1080-FAP cells; format: binding; conditions: co-incubation with unlabeled precursor for 60 min
T1 construct: expressed in transfected cells; host or cells: HT-1080 cells transfected with FAP (HT-1080-FAP)
T1 sequence (Q12884 1-760): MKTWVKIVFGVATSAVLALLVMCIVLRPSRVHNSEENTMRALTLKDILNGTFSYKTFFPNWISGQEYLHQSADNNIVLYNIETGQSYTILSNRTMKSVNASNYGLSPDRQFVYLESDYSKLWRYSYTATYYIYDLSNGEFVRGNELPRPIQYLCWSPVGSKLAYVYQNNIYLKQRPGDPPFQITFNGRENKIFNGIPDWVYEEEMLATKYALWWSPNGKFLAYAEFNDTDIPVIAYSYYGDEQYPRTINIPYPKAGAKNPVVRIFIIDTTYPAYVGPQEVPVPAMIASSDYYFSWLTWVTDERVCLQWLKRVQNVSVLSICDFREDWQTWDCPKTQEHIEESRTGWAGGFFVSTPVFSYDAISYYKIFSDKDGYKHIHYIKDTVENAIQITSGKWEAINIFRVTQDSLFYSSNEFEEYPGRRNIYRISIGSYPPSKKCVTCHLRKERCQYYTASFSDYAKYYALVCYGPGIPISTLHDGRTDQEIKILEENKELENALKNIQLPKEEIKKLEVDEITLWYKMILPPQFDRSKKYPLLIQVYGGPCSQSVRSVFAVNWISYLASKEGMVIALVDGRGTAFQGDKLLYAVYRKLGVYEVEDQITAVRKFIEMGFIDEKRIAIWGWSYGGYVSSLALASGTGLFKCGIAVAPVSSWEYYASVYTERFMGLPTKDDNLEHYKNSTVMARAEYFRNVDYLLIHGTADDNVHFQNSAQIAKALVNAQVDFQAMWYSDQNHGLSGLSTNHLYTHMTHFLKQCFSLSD
Procedure: (§1) The binding properties of the FAPI derivatives were evaluated using the FAP‐transfected HT‐1080‐FAP and CD26 expressing HEK-CD26 cells. All cells were cultivated in Dulbecco's modified Eagle's medium (DMEM) containing 10% fetal calf serum (FCS) at 37 °C/5% carbon dioxide. Cells were seeded in 6-well plates and cultivated to a final confluence of approximately 80–90% (1.2 to 2.0 × 10^6 cells/well). After washing with FCS free medium, for each well ca. 3 kBq of the radiolabeled compound (10–20 GBq/µmol for [^18F]AlF-labeling) was added to the cells in FCS free medium. On completion of the individual incubation time, cells were washed with PBS and treated with 1.4 mL lysis buffer (0.3 m NaOH, 0.2% SDS) before being transferred to measuring tubes. Competition experiments were performed by co-incubation with the unlabeled precursor for 60 min. Radioactivity was determined in a Wizard Gamma Counter (Perkin Elmer), normalized to 10^6 cells and calculated as percentage of the applied dose (%AD). Each experiment was performed in triplicate.

[1] = molecular target: T2, FAP‐transfected HT‐1080‐FAP cells (Homo sapiens, UniProt Q12884); assay: In vitro binding/uptake on FAP-transfected HT-1080-FAP cells; format: cell-based; conditions: HT1080-FAP cells; for uptake 10 min: 10 min incubation; for uptake 60 min: 60 min incubation; for uptake, measurement at 90 min: printed in 120 min column, footnote a: 90 min; for uptake 120 min: 120 min incubation
T2 construct: expressed in transfected cells; host or cells: HT-1080 cells transfected with FAP (HT-1080-FAP)
T2 sequence (Q12884 1-760): T1 sequence (Q12884 1-760)
Procedure: as §1

HT-1080-FAP xenografts = assay: Small animal PET imaging; format: in vivo, BALB/c nu/nu mice; conditions: for Tumor Uptake (SUVmean) 8 min / Tumor Uptake (SUVmean) 22 min / Tumor Uptake (SUVmean) 57 min / Tumor Uptake (SUVmean) 120 min: HT1080-FAP transplanted nude mice
Procedure: Eight-week-old BALB/c nu/nu mice (Charles River) were subcutaneously inoculated with 5 × 10^6 HT-1080-FAP cells. The subcutaneous xenografts were grown at the flanks of the mice. Xenografts were grown to a tumor diameter of 10–15 mm. Mice were anesthetized using isoflurane inhalation. 5–10 MBq of the [^18F]AlF-labeled compounds/ the respective tracer (FAPI-42/52/74/75/76; approx. 0.5 nmol; Am approximately 10–20 GBq/µmol) were injected intravenously for PET imaging. In vivo competition (blocking) experiments with ^68 Ga-FAPI-74 (9 MBq; 18.2 GBq/µmol) were performed by adding 30 nmol of unlabeled FAPI-74 to the injection solution. Images were acquired using a small-animal PET scanner (Inveon, Siemens). Within the first 60 min p.i., a dynamic scan was performed in list mode, followed by a static scan from 120–140 min post injection. Images were reconstructed iteratively using the 3D-OSEM + MAP method (Siemens) and were converted to standardized uptake value (SUV). For the dynamic analysis, 28 frames were reconstructed. Quantification was based on ROI analysis and expressed as SUV.
SUPPLEMENTAL TABLE 1: Tumor-SUVmean values of all mentioned ^18F labeled FAPI-derivatives in HT1080-FAP transplanted nude mice at different time points. The time points 8 min, 22 min and 57 min were selected from the applied 28-frame 3D-OSEM+MAP (Siemens) reconstruction method.

[2] = Determination of logD values (1-octanol / PBS); format: physicochemical; conditions: 1-octanol / phosphate buffered saline, pH 7.4
Procedure: All experiments for the determination of logD values were performed in triplicate. For the determination by means of radioactivity, around 5 × 10^6 cpm in ca. 1 µL of radioactive stock solutions (water/acetonitrile 1:1) were added to 100 µL phosphate buffered saline (PBS, pH 7.4) and 100 µL of 1-octanol. The mixture was vortexed for 1 min, followed by 5 min of centrifugation for phase separation. A sample of each phase (10 or 50 µL) was measured for radioactivity per volume (Packard Cobra II Autogamma, GMI Inc., USA). In case of FAPI-72 and -73, the reference compounds [^19F]-FAPI-72 and -73 were dissolved in PBS at a concentration of 1 mg/mL. 50 µL of these solutions were each mixed with 50 µL 1-octanol and processed by vortexing and centrifugation as described above. 1 µL of each phase was analyzed by HPLC and the individual content of compound was determined by peak integration. The area under the peaks of the individual runs was used to calculate the log D value.
Fig. 1 Overview of the synthesized precursors discussed in this study. The corresponding log D values were determined by detection of the radiolabeled tracer in 1-octanol and phosphate buffered saline (pH 7). For values labeled with an asterix, the log D was calculated from the relative content of the non-radioactive reference standards in the 1-octanol and the water phase by HPLC analysis and peak integration TEXT PRINTED IN THE PICTURE: FAPI-42: LOG D: -1.63±0.06 | FAPI-52: LOG D: -1.90±0.02 | FAPI-72: LOG D: 1.20±0.01* | FAPI-73: LOG D: 1.13±0.05* | FAPI-74: LOG D: -2.42±0.03 | FAPI-75: LOG D: -3.36±0.12 | FAPI-76: LOG D: -2.86±0.07

[3] = system: U87MG- and A549-xenograft models; conditions: in vivo; cited from earlier work
[4] = molecular target: T3, CD26 expressing HEK-CD26 cells (Homo sapiens, UniProt P27487); assay: In vitro binding on HEK-CD26 cells (negative control); format: cell-based
T3 construct: expressed in transfected cells; host or cells: HEK cells transfected with CD26/DPP4 (HEK-CD26)
T3 sequence (P27487 whole entry): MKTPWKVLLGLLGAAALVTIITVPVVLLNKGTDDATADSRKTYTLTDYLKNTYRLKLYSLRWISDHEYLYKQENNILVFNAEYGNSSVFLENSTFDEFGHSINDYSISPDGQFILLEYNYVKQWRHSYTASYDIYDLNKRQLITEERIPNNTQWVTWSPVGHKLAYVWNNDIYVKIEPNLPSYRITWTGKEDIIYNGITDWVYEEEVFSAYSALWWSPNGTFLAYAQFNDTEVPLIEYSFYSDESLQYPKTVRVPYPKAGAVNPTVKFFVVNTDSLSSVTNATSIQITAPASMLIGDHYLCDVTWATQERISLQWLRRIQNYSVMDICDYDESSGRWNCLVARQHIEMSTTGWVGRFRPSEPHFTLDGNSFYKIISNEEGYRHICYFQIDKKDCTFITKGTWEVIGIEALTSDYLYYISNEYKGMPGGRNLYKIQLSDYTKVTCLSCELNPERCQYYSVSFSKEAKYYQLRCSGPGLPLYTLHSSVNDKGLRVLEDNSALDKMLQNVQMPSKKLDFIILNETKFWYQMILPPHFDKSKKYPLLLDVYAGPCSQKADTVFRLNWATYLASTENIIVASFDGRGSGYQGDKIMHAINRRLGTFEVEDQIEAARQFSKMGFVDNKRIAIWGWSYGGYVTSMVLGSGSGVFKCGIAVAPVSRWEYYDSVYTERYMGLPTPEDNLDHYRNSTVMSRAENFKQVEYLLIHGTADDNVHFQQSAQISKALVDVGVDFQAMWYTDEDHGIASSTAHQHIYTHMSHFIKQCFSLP
Procedure: as §1

wild type HT1080 cells = assay: In vitro binding on wild type HT1080 cells (negative control); format: cell-based
Procedure: as §1
Table 1 summarizes the uptake and EC50 values of the discussed ^18F-labeled FAPI derivatives using the FAP-transfected cell line HT-1080-FAP. Additionally, the lead candidates FAPI-74 to -76 were tested on HEK-CD26 as well as -74 and -75 on wild type HT1080 cells as negative control. […] For FAPI-74, a plateau was already reached after approximately 10 min with 27.2 ± 0.88%AD/10^6cells. […] The EC50 values were all in the low to sub-nanomolar range. Only a neglectable fraction of FAPIs 74–76 were detected on HEK-CD26 cells (0.18–0.24%) as well as on wildtype HT1080 in case of -74 and 75 (< 0.1%).

[5] = small animal PET, HT-1080-FAP xenograft
[6] = non-radioactive reference standards, 1-octanol and water phase, HPLC analysis and peak integration (asterisk)
[7] = radiolabeled tracer detected by radioactivity in 1-octanol and phosphate buffered saline

Row | Compound | EC50 (FAP (HT-1080-FAP cells)) [nM] | uptake 10 min [1] [%AD/10^6 cells] | uptake 60 min [1] [%AD/10^6 cells] | uptake, measurement at 90 min [1] | Tumor Uptake (SUVmean) 8 min (HT-1080-FAP xenografts) | Tumor Uptake (SUVmean) 22 min (HT-1080-FAP xenografts) | Tumor Uptake (SUVmean) 57 min (HT-1080-FAP xenografts) | Tumor Uptake (SUVmean) 120 min (HT-1080-FAP xenografts) | logD [2, 6] | uptake 120 min [1] [%AD/10^6 cells] | logD [2, 7] | detectability of tumor region in PET (HT-1080-FAP xenografts; [5]) | further results
1 | N#C[C@@H]1CC(F)(F)CN1C(=O)CNC(=O)c1ccnc2ccc(OCCCN3CCN(C(=O)CN4CCN(CC(=O)O)CCN(CC(=O)O)CC4)CC3)cc12 [FAPI-42] | 3.3 | 40.0 ± 1.73 | 61.2 ± 1.76 | – | 1.05 | 1.0 | 0.73 | 0.60 | – | 58.0 ± 2.24 | -1.63 ± 0.06 | – | elimination and bone accumulation [3]: hepatobiliary elimination together with an accumulation in the bone; tumor uptake SUVmean at early timepoints (HT-1080-FAP xenografts; small animal PET screening, early timepoints): approx. 1.0
2 | N#C[C@@H]1CC(F)(F)CN1C(=O)CNC(=O)c1ccnc2ccc(OCCCN3CCN(C(=O)[C@H](CC(C(=O)O)C(=O)O)NC(=O)CN4CCN(CC(=O)O)CCN(CC(=O)O)CC4)CC3)cc12 [FAPI-75] | 3.1 | 34.9 ± 0.26 | 74.0 ± 2.07 | – | 1.55 | 2.06 | 2.24 | 1.9 | – | 82.35 ± 3.61 | -3.36 ± 0.12 | – | uptake CD26 [4]: 0.18 ± 0.02 %AD/10^6 cells; uptake WT (wild type HT1080 cells; wild type HT1080 control cells): 0.06 ± 0.01 %AD/10^6 cells; fraction detected on wildtype HT1080 (wild type HT1080 cells; wildtype HT1080, text): < 0.1%; excretion pathway (HT-1080-FAP xenografts; small animal PET in tumor bearing mice): favorable renal excretion; tumor uptake SUVmean (HT-1080-FAP xenografts; small animal PET screening, discussion): approx. 2.0; tumor-SUV max (HT-1080-FAP xenografts; [5]): 3.7; tumor-SUV mean (HT-1080-FAP xenografts; [5]): 2.2
3 | CN(CCCN1CCN(C(=O)CN2CCN(CC(=O)O)CCN(CC(=O)O)CC2)CC1)c1ccc2nccc(C(=O)NCC(=O)N3CC(F)(F)C[C@H]3C#N)c2c1 [FAPI-52] | 3.2 | 32.0 ± 0.28 | 45.9 ± 0.54 | – | 0.65 | 0.55 | 0.47 | 0.20 | – | 53.2 ± 1.38 | -1.9 ± 0.02 | – | –

Compounds with a lower EC50 (FAP (HT-1080-FAP cells)), results first:

Row | EC50 (FAP (HT-1080-FAP cells)) [nM] | uptake 10 min [1] [%AD/10^6 cells] | uptake 60 min [1] [%AD/10^6 cells] | uptake, measurement at 90 min [1] | Tumor Uptake (SUVmean) 8 min (HT-1080-FAP xenografts) | Tumor Uptake (SUVmean) 22 min (HT-1080-FAP xenografts) | Tumor Uptake (SUVmean) 57 min (HT-1080-FAP xenografts) | Tumor Uptake (SUVmean) 120 min (HT-1080-FAP xenografts) | logD [2, 6] | uptake 120 min [1] [%AD/10^6 cells] | logD [2, 7] | Compound | detectability of tumor region in PET (HT-1080-FAP xenografts; [5]) | further results
4 | < 1 | 13.9 ± 0.60 | 23.6 ± 0.40 | 24.4 ± 0.30^a %AD/10^6 cells | 0.19 | 0.15 | 0.13 | 0.1 | 1.2 ± 0.01 | – | – | CN(CCCN1CCN(C(=O)c2ccc([N+](C)(C)C)nc2)CC1)c1ccc2nccc(C(=O)NCC(=O)N3CC(F)(F)C[C@H]3C#N)c2c1 [FAPI-72] | hardly detectable | –
5 | < 1 | 22.7 ± 0.24 | 39.2 ± 0.48 | 39.6 ± 0.95^a %AD/10^6 cells | 0.45 | 0.44 | 0.42 | 0.33 | 1.13 ± 0.05 | – | – | C[N+](C)(C)c1ccc(C(=O)N2CCN(CCCOc3ccc4nccc(C(=O)NCC(=O)N5CC(F)(F)C[C@H]5C#N)c4c3)CC2)cn1 [FAPI-73] | hardly detectable | –
